Patent publication US20030055107A1, “Forms of pharmaceutically active agents and method for manufacture thereof” (priority 2001, published 2003)

Experiments:
[1] = Dynamic Vapor Sorption Moisture Balance, relative weight gain due to moisture pickup; format: physicochemical; settings: for critical humidity: cycled between 0% RH to 95% RH to 0% RH over 48 hours at 25° C.
Protocol: Samples were cycled between 0% RH to 95% RH to 0% RH over 48 hours at 25° C. […] At 50% humidity, the relative weight gain due to moisture pickup was about 25% while at 70% humidity the relative weight gain was about 35%. […] At 50% humidity the relative weight gain due to moisture pickup was about 1.4% and at 70% humidity the weight gain was bout 2%.

[2] = cited from earlier work
[3] = Dissolution of dried new form in water (observation); format: physicochemical; settings: dried form with potassium cation placed in water
Text: The new ibuprofen form of the present invention dissociates into ibuprofen in its free acid form.

In the case of CC(C)Cc1ccc(C(C)C(=O)O)cc1.[K] (stereo not shown) [potassium ibuprofen], the “physical change of sample during humidity cycling” value ([1]; 0-95% RH cycle, 25° C.) is listed as “the sample dissolved and formed a gel”, the critical humidity [1] is listed as “about 30%” and the “solubility (in words)” value ([2]; background statement) is listed as “highly soluble”.
For CC(C)Cc1ccc(C(C)C(=O)O)cc1.CC(C)Cc1ccc(C(C)C(=O)[O-])cc1.[K+] (stereo not shown) [new ibuprofen form], the “hygroscopicity compared to the potassium salt of ibuprofen” value ([1]; 0-95% RH cycle, 25° C.) was “significantly less hygroscopic”, the “physical change of sample during humidity cycling” value ([1]; 0-95% RH cycle, 25° C.) was “No change in crystal appearance was observed” and the critical humidity [1] was “about 30%”. For the same compound, the “dissolution in water (in words)” value [3] was “readily dissolves in water” and the “dissolution in water (in words)” value ([3]; listed as ibuprofen form of the present invention wherein the cation is potassium) was “immediate dissolution”.
For CC(C)Cc1ccc(C(C)C(=O)O)cc1 (racemic) [Ibuprofen, ibuprofen], the solubility in water ([2]; water) is listed as < 100 µg/mL.
For CO[C@@H]1[C@@H](OC(N)=O)[C@@H](O)[C@H](Oc2ccc3c(O)c(NC(=O)c4ccc(O)c(CC=C(C)C)c4)c(=O)oc3c2C)OC1(C)C [novobiocin], the “solubility of amorphous substance versus crystalline agent” value ([2]; amorphous vs crystalline, Mullins and Macek 1960) is given as “ten times higher”.
